In patent US11224224B2, “Thiobenzoimidazole as fungicides” (REDAG CROP PROTECTION LTD, priority 2017, dated 2022):
In brackets after ≈: the same amount, converted by molar mass.

Legend:
Format in all cases: cell-based
Phytophthora cactorum = experiment: 96 well plate test (amended agar with spores); conditions: 96 well plate, 20, 2, 0.2 and 0.02 ppm, 1% PDA, 2 to 3 days (cells marked *), read-out: EC50 Phytophthora spp. (*96 well plate format vs. Phytophthora cactorum)
Experimental: Compounds were screened in 96 well plates with 10 compounds per plate. Each compound was screened using agar amended to 20, 2, 0.2 and 0.02 ppm, with Proline at 50 and 10 ppm and 0.2% DMSO used as controls. Each test concentration and standard was replicated twice on a plate. Compounds were screened against Phytophthora cactorum. The agar used in the test is a 1% PDA. 1000 spores/mL agar were added to the appropriate agar.
A ×10 stock solution in 2% DMSO was produced for each dose i.e. 200, 20, 2 and 0.2 ppm, and 10 μl of this added to the appropriate wells on the plate. An equivalent amount of 2% DMSO and Proline stock at 500 and 100 ppm were added for the controls. To each well 90 μl of the appropriate agar spore suspension was added to give the required final well concentrations. Plates were incubated at room temperature (18° C.) and assessed after 2 to 3 days. The amount of pathogen growth in each well was compared to the DMSO controls and an EC50 concentration was calculated. The results are provided in Table 1 in which G represents an EC50 above 20 ppm, F represents an EC50 of 1-20 ppm and E represents an EC50 less than 1 ppm.

Pythium ultimum = experiment: Amended agar assay (PDA), colony growth; set-up: key to % control Pythium ultimum 2 ppm: D: no control detected at this concentration; C: up to 50% control; B: from 50 to 99% control; A: a control of greater than 99%, i.e. no detectable colony growth; conditions: for inhibition of growth at 2 ppm: Globisporangium ultimum, read-out: % control Pythium ultimum 2 ppm
oomycete plant pathogens = experiment: Fungicidal activity testing, overall summary; conditions: summary statement on Table 1
Experimental: The activity of compounds of the invention was assessed by testing against certain oomycete plant pathogens and representative data are presented in Table 1.

Row | Compound | EC50 (Phytophthora cactorum) [µg/mL] | inhibition of growth at 2 ppm (Pythium ultimum) [%] | control over the pathogens tested (oomycete plant pathogens) | % control Pythium ultimum 2 ppm (Pythium ultimum)
1 | CN(C)C(=O)CSc1nc2ccccc2n1-c1nnnn1C [Example 58] | > 20 | < 50 | – | –
2 | Cc1ccc(CSc2nc3ccccc3n2-c2nnnn2C)nc1 [Example 69] | 1 to 20 (≈ 2.96 to 59.3 µM) | > 99 | good to excellent control | –
3 | Cn1nnnc1-n1c(SCc2nccc3ccccc23)nc2ccccc21 [Example 68] | > 20 | 50 to 99 | – | –
4 | Cn1nnnc1-n1c(SCc2cccc(NC(=O)C3CC3)n2)nc2cccc(Cl)c21 [Example 81] | > 20 | – | – | –
5 | COc1ccc(CSc2nc3ccccc3n2-c2nnnn2C)nc1 [Example 73] | 1 to 20 (≈ 2.83 to 56.6 µM) | > 99 | good to excellent control | –
6 | Cn1nnnc1-n1c(Sc2ncccn2)nc2ccccc21 [Example 60, 1-(1-Methyl-1H-tetrazol-5-yl)-2-(pyrimidin-2-ylthio)-1H-benzo[d]imidazole] | > 20 | < 50 | – | –
7 | CCC(=O)Nc1cccc(CSc2nc3ccccc3n2-c2nnnn2C)n1 [Example 36] | > 20 | 50 to 99 | – | –
8 | Cn1nnnc1-n1c(SCC(=O)N2CCOCC2)nc2ccccc21 [Example 56] | > 20 | < 50 | – | –
9 | Cn1nnnc1-n1c(SCc2ccccn2)nc2cccc(Cl)c21 [Example 82] | > 20 | 50 to 99 | – | –
10 | Cn1nnnc1-n1c(SCc2cc(C(F)(F)F)ccn2)nc2ccccc21 [Example 78] | 1 to 20 (≈ 2.56 to 51.1 µM) | > 99 | good to excellent control | –
11 | Cn1nnnc1-n1c(SCc2cccc(NCc3ccccc3)n2)nc2ccccc21 [Example 88, N-Benzyl-6-(((1-(1-methyl-1H-tetrazol-5-yl)-1H-benzo[d]imidazol-2-yl)thio)methyl)pyridin-2-amine] | < 1 | > 99 | good to excellent control | –
12 | C#Cc1ccc2nc(SCc3ccccn3)n(-c3nnnn3C)c2c1 [Example 64, 6-Ethynyl-1-(1-methyl-1H-tetrazol-5-yl)-2-((pyridin-2-ylmethyl)thio)-1H-benzo[d]imidazole] | > 20 | < 50 | – | –
13 | COc1ccnc(CSc2nc3ccccc3n2-c2nnnn2C)c1 [Example 42] | 1 to 20 (≈ 2.83 to 56.6 µM) | > 99 | good to excellent control | –
14 | Cn1nnnc1-n1c(Sc2ccccn2)nc2ccccc21 [Example 61, 1-(1-Methyl-1H-tetrazol-5-yl)-2-(pyridin-2-ylthio)-1H-benzo[d]imidazole] | > 20 | – | – | D
15 | COc1ccnc(CSc2nc3ccccc3n2-c2nnnn2C)c1OC [Example 39] | 1 to 20 (≈ 2.61 to 52.2 µM) | > 99 | good to excellent control | –
16 | Cn1nnnc1-n1c(SCc2cccc(C#N)n2)nc2ccccc21 [Example 72] | > 20 | – | – | D
17 | COc1cc(F)cc2c1nc(SCc1ccccn1)n2-c1nnnn1C [Example 85] | > 20 | > 99 | – | –
18 | Cn1nnnc1-n1c(SCc2cccc(NC(=O)COc3ccccc3)n2)nc2ccc(F)cc21 [Example 47] | < 1 | > 99 | good to excellent control | –
19 | COCCCOc1ccnc(CSc2nc3ccccc3n2-c2nnnn2C)c1C [Example 40] | 1 to 20 (≈ 2.35 to 47 µM) | 50 to 99 | good to excellent control | –
20 | Cn1nnnc1-n1c(SCc2ccc(C#N)cn2)nc2ccccc21 [Example 74] | > 20 | < 50 | – | –

Row | Compound | EC50 (Phytophthora cactorum) [µg/mL] | inhibition of growth at 2 ppm (Pythium ultimum) [%] | control over the pathogens tested (oomycete plant pathogens) | % control Pythium ultimum 2 ppm (Pythium ultimum)
21 | Cn1nnnc1-n1c(SCc2cccc(NC(=O)C3CC3)n2)nc2c(Cl)cccc21 [Example 63, N-(6-(((4-Chloro-1-(1-methyl-1H-tetrazol-5-yl)-1H-benzo[d]imidazol-2-yl)thio)methyl)pyridin-2-yl)cyclopropanecarboxamide] | 1 to 20 (≈ 2.27 to 45.4 µM) | > 99 | good to excellent control | –
22 | Cn1nnnc1-n1c(SCc2cc(C#N)ccn2)nc2ccccc21 [Example 70] | 1 to 20 (≈ 2.87 to 57.4 µM) | > 99 | good to excellent control | –
23 | Cn1nnnc1-n1c(SCc2cccc(NC(=O)OC(C)(C)C)n2)nc2cccc(Cl)c21 [Example 83] | 1 to 20 (≈ 2.11 to 42.3 µM) | 50 to 99 | good to excellent control | –
24 | C#Cc1ccc2nc(SCc3cccc(NC(=O)C(F)(F)Oc4ccccc4)n3)n(-c3nnnn3C)c2c1 [Example 65, N-(6-(((6-Ethynyl-1-(1-methyl-1H-tetrazol-5-yl)-1H-benzo[d]imidazol-2-yl)thio)methyl)pyridin-2-yl)-2,2-difluoro-2-phenoxyacetamide] | > 20 | 50 to 99 | – | –
25 | COc1c(C)cnc(CSc2nc3ccccc3n2-c2nnnn2C)c1C [Example 38] | 1 to 20 (≈ 2.62 to 52.4 µM) | > 99 | good to excellent control | –
26 | Cn1nnnc1-n1c(SCc2ncc(Cl)cc2Cl)nc2ccccc21 [Example 77] | > 20 | 50 to 99 | – | –
27 | Cn1nnnc1-n1c(SCc2ccccn2)nc2cc(Cl)ccc21 [Example 67] | 1 to 20 (≈ 2.79 to 55.9 µM) | > 99 | good to excellent control | –
28 | COc1cc(F)cc2c1nc(SCc1cccc(NC(=O)OC(C)(C)C)n1)n2-c1nnnn1C [Example 84] | 1 to 20 (≈ 2.06 to 41.1 µM) | > 99 | good to excellent control | –
29 | Cn1nnnc1-n1c(SCC(=O)Nc2ccccc2)nc2ccccc21 [Example 57] | > 20 | < 50 | – | –
30 | Cn1nnnc1-n1c(SCc2nccs2)nc2ccc(F)cc21 [Example 48] | 1 to 20 (≈ 2.88 to 57.6 µM) | > 99 | good to excellent control | –
31 | COc1cccnc1CSc1nc2ccccc2n1-c1nnnn1C [Example 71] | > 20 | < 50 | – | –
32 | Cn1nnnc1-n1c(SCc2ccc(Cl)cn2)nc2ccccc21 [Example 76] | 1 to 20 (≈ 2.79 to 55.9 µM) | > 99 | good to excellent control | –
33 | CCNC(=O)CSc1nc2ccccc2n1-c1nnnn1C [Example 55] | > 20 | < 50 | – | –
34 | Clc1cncc(Cl)c1-n1c(SCc2ccccn2)nc2ccccc21 [Example 51] | > 20 | – | – | D
35 | Cn1nnnc1-n1c(SCc2cccc(NC(=O)C3CC3)n2)nc2ccccc21 [Example 35] | 1 to 20 (≈ 2.46 to 49.2 µM) | 50 to 99 | – | –
36 | COc1ccnc(CSc2nc3cc(Cl)ccc3n2-c2nnnn2C)c1 [Example 66] | 1 to 20 (≈ 2.58 to 51.6 µM) | > 99 | good to excellent control | –
37 | Cn1nnnc1-n1c(SCc2cccc(NC(=O)C(F)(F)Oc3ccccc3)n2)nc2ccc(I)cc21 [Example 44] | > 20 | – | – | D
38 | Cn1nnnc1-n1c(SCc2ccc(Br)cn2)nc2ccccc21 [Example 75] | 1 to 20 (≈ 2.49 to 49.7 µM) | > 99 | good to excellent control | –
39 | Cn1nnnc1-n1c(SCc2ccncn2)nc2ccccc21 [Example 43] | > 20 | – | – | D
